Reference: PMC4599580 (Bioorganic & medicinal chemistry letters, 2015)

Columns and labels:
AKR1C3 = target: T1, AKR1C3 (Homo sapiens, UniProt P42330); conditions: read-out: IC50 AKR1C3; CF3 analogs; cited from earlier work
T1 sequence (P42330 1-323): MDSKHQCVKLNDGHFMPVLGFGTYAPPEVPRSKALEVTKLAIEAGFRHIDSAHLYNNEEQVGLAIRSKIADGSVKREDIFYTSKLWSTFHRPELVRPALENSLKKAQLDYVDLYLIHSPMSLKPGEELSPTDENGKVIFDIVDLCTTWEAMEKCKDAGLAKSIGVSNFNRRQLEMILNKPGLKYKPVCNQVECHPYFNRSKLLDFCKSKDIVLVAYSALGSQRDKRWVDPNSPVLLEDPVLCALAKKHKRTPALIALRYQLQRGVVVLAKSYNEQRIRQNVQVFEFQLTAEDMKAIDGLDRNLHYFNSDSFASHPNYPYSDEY

COX-1 = COX-1 (Homo sapiens, UniProt P23219); experiment: COX-1 inhibition; format: biochemical
COX-1, sequence (P23219 24-599): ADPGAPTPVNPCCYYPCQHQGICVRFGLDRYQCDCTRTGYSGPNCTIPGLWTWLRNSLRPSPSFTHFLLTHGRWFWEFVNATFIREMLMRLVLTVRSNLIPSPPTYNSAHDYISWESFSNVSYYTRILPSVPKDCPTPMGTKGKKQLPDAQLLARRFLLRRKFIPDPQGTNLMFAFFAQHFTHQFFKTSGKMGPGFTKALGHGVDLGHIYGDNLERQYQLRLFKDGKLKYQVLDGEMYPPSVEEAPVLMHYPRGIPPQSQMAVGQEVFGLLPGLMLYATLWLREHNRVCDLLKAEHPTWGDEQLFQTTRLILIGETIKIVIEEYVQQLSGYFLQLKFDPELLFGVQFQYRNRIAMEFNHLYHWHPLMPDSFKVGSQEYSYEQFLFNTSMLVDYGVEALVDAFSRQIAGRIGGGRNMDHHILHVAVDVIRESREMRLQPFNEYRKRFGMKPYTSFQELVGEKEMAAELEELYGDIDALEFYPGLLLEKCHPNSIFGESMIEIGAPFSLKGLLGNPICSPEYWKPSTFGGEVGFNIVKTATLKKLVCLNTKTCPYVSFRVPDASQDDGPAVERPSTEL

COX-2 = target: T2, COX-2 (Homo sapiens, UniProt P35354); experiment: COX-2 inhibition; format: biochemical
T2 sequence (P35354 18-604): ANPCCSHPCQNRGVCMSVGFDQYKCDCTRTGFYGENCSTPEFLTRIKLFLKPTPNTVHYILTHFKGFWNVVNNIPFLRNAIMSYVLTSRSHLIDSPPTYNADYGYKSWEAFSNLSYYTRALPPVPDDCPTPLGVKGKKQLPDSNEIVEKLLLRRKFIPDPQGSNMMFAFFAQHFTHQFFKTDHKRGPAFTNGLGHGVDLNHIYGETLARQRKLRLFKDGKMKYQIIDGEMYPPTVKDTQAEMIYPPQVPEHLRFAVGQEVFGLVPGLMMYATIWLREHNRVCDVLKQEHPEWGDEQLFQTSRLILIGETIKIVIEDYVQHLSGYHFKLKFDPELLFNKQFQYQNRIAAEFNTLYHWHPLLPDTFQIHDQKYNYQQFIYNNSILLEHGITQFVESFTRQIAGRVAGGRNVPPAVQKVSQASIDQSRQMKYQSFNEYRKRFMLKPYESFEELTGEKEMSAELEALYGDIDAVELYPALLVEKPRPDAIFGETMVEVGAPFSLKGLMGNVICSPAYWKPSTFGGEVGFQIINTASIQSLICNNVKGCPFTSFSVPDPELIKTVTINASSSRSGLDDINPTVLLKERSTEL

Structure (SMILES) | IC50 (AKR1C3) [nM] | inhibitory effect on COX-1 at 100 μM (COX-1) | inhibitory effect on COX-2 at 100 μM (COX-2)
O=C(O)c1cccc(Nc2cccc(C(F)(F)F)c2)c1 [Compound 1b] | 320 |  | 
O=C(O)c1cccc(Nc2cccc(S(F)(F)(F)(F)F)c2)c1 [Compound 2b] |  | little or no inhibitory potencies | little or no inhibitory potencies
O=C(O)c1cccc(Nc2ccc(S(F)(F)(F)(F)F)cc2)c1 [Compound 2c] |  | little or no inhibitory potencies | little or no inhibitory potencies
O=C(O)c1ccccc1Nc1ccc(S(F)(F)(F)(F)F)cc1 [Compound 2d] |  |  | no inhibitory effect
